# According to patent US20220364065A1, “COMPOSITION FOR REMOVING PLURIPOTENT STEM CELLS AND METHOD OF REMOVING PLURIPOTENT STEM CELLS” (NATIONAL UNIVERSITY CORPORATION HOKKAIDO UNIVERSITY, priority 2018, published 2022):
# What was measured:
# mouse neural stem cells = test: Sox2 immunostaining, neural stem cells; format: cell-based; conditions: 10 μM BRQ, 24 hours
# Description: (§1) The cells were fixed and immunostained as described in Kondo et al., Genes Dev. 2004, Vol. 18, Issue 23, pp. 2963-72. […] For the culture of mNSCs, PDL+fibronectin-coated ones were used (see Johe KK et al., Genes Dev. 1996, Vol. 10, Issue 24, pp. 3129 to 3140). For the culture of ES cells and iPS cells, gelatin-coated ones were used.
# (§2) For immunostaining, the cells were first washed once with PBS, then fixed by adding 4% paraformaldehyde and incubating for 10 minutes at room temperature. The cells were replaced with PBS containing 0.3% Triton X100 and incubated for 5 minutes at room temperature, then replaced with PBS containing 0.3% Triton X100 and 10% FCS (blocking solution) and incubated for 30 minutes at room temperature. The solution was replaced with primary antibody solution diluted in blocking solution and incubated for 2 hours at room temperature. After washing three times with PBS, secondary antibody and DAPI solution diluted with blocking solution were added and incubated at room temperature for 2 hours. After washing three times with PBS, the cells were sealed with anti-fading agent (manufactured by DAKO, code number: 53023) and observed under a microscope. […] In addition, fluorescence images were acquired with an Axiolmager M1 microscope (manufactured by Carl Zeiss). […]
# mouse ES cells [1] = test: Immunostaining of pluripotent stem cell markers (Sox2, Nanog, Oct4), ES cells; format: cell-based
# Description: The cells were fixed and immunostained as described in Kondo et al., Genes Dev. […] For the culture of ES cells and iPS cells, gelatin-coated ones were used.
# For immunostaining, the cells were first washed once with PBS, then fixed by adding 4% paraformaldehyde and incubating for 10 minutes at room temperature. The cells were replaced with PBS containing 0.3% Triton X100 and incubated for 5 minutes at room temperature, then replaced with PBS containing 0.3% Triton X100 and 10% FCS (blocking solution) and incubated for 30 minutes at room temperature. The solution was replaced with primary antibody solution diluted in blocking solution and incubated for 2 hours at room temperature. After washing three times with PBS, secondary antibody and DAPI solution diluted with blocking solution were added and incubated at room temperature for 2 hours. […] Note that the cell nuclei were visualized by contrast staining with DAPI solution (1 μg/mL, manufactured by Dojindo, product code: D523). In addition, fluorescence images were acquired with an Axiolmager M1 microscope (manufactured by Carl Zeiss).
# LMB is a specific inhibitor of CRM1, also known as Exportin 1.
# mouse iPS cells [2] = test: MTT assay, viability of mouse iPS cells; format: cell-based; conditions: 3 days
# Description: (§3) One thousand cells were seeded into each well of a 96-well plate and cultured for 3 days in medium (200 μL/well) supplemented with only DMSO at a final concentration of 0.1% or in medium (200 μL/well) supplemented with each dihydroorotate dehydrogenase (DHODH) inhibitor. The medium used was the appropriate culture solution for each cell as described above.
# (§4) The concentration of each DHODH inhibitor added to the medium was a 2-fold dilution series starting from 200 μM.
# (§5) As a background, a well containing medium only was prepared, and as a control, a well was also prepared in which medium containing Triton X-100 (final concentration 0.2%) was added to the cells.
# (§6) Then, 5 μL of MTT (5 mg/ml, manufactured by Wako) was added to each well, and the cells were incubated at 37° C. for 2 to 3 hours. Then, the medium was replaced with 100 μL of DMSO to lyse the cells, and the absorbance of these cell lysates at a wavelength of 570 nm was measured with a microplate reader (manufactured by Bio-Rad, Benchmark model). In addition, based on the obtained absorbance, the cell viability was calculated by the following formula.
# (§7) Cell viability (%)=(absorbance in wells with DHODH inhibitor-absorbance in background)/(absorbance in control-absorbance in background)×100.
# [3] = Side effects in treated tumor-bearing mice; format: in vivo; conditions: NOD/SCID mice, BRQ intraperitoneally
# mouse iPS cells [4] = test: Cell proliferation and cell death (BrdU uptake, Ki67, Casp3 immunostaining), iPS cells; format: cell-based; conditions: BRQ 2 days
# Description: as §1, §2
# mouse ES cells [5] = test: MTT assay, viability of mouse ES cells; format: cell-based; conditions: 3 days
# Description: as §3, §4, §5, §6, §7
# [6] = test system: PA6: mouse bone marrow-derived stromal cells; test: MTT assay, viability of PA6 cells; format: cell-based; conditions: 10 μM BRQ, 3 days
# Description: as §3, §4, §5, §6
# Cell viability (%)=(absorbance in wells with DHODH inhibitor-absorbance in background)/(absorbance in control-absorbance in background)×100. […]
# [7] = test system: mouse neural stem cells and mouse ES cells; test: Mixed culture of neural stem cells and ES cells, Nestin/Nanog immunostaining; format: cell-based; conditions: 10 μM BRQ, 3 days
# Description: as §1
# For immunostaining, the cells were first washed once with PBS, then fixed by adding 4% paraformaldehyde and incubating for 10 minutes at room temperature. The cells were replaced with PBS containing 0.3% Triton X100 and incubated for 5 minutes at room temperature, then replaced with PBS containing 0.3% Triton X100 and 10% FCS (blocking solution) and incubated for 30 minutes at room temperature. The solution was replaced with primary antibody solution diluted in blocking solution and incubated for 2 hours at room temperature. After washing three times with PBS, secondary antibody and DAPI solution diluted with blocking solution were added and incubated at room temperature for 2 hours. After washing three times with PBS, the cells were sealed with anti-fading agent (manufactured by DAKO, code number: 53023) and observed under a microscope. […] In addition, fluorescence images were acquired with an Axiolmager M1 microscope (manufactured by Carl Zeiss).
# The cells were then analyzed by immunostaining as described above.
# [8] = test system: teratomas formed from mouse iPS cells; test: Anti-teratoma activity in NOD/SCID mice, iPS cell-derived tumors; format: in vivo
# Description: For tumors, 10-μm-thick sections were prepared and immunostained using the methods described by Kondo T. and Raff M., EMBO J. 2000; 19(9): 1998-2007, and Takanaga H, et al., Stem Cells. 2009; 27(1): 165-174. The following antibodies were used for this immunostaining.
# TOCRIS) PBS solution was administered daily intraperitoneally to mice bearing subcutaneous tumors. Five days after intraperitoneal administration, the mice were sacrificed to death, and the tumors were removed and photographed for pathological analysis according to the method described in Tsukamoto Y, et al., Stem Cells. 2016; 34(8): 2016-2025.
# Next, sections of these tumors were prepared, immunolabeled for the proliferation marker Ki67, pluripotent stem cell markers (Oct4 and Nanog), and differentiation markers (ATF, βIII tubulin, and SMA), and observed.
# mouse ES cells [9] = test: Cell proliferation and cell death (BrdU uptake, Ki67, Casp3 immunostaining), ES cells; format: cell-based; conditions: BRQ 2 days
# Description: as §1, §2
# [10] = ES cells, 2 days, BRQ 10 μM (ZVAD 100 nM where added)
# [11] = mouse ES cells, 10 μM BRQ, 24 hours
# [12] = 2-fold dilution series starting from 200 μM
smiles,measurement,setting,value
"Cc1c(-c2ccc(-c3ccccc3F)cc2)nc2ccc(F)cc2c1C(=O)O [BRQ, 6-fluoro-2-(2′-fluoro-1,1′-biphenyl-4-yl)-3-methyl-4-quinoline-sodium carboxylate]",changes in proliferation/death and Sox2 expression,mouse neural stem cells,no similar changes were observed
same,Nanog-positive cells,mouse ES cells [1]; [10],6%
same,Oct4-positive cells,mouse ES cells [1]; [10],2%
same,cells in which expression of Sox2 was not observed,mouse ES cells [1]; [11],about 30%
same,inhibition of cell proliferation or cell death,mouse ES cells [1]; [11],inhibition of cell proliferation or cell death was already observed
same,subcellular localization of Nanog,"mouse ES cells [1]; mouse ES cells, 10 μM BRQ, 2 days",distributed in the cytoplasm
same,"cytotoxic activity (viability, MTT assay)",mouse iPS cells [2]; 10 μM BRQ,significant cytotoxic activity
same,"cytotoxic activity (viability, MTT assay)",mouse iPS cells [2]; [12],significant cytotoxic activity
same,side effects in treated mice,[3],no visible side effects
same,CASP3 activation (Casp3 immunostaining),mouse iPS cells [4],strongly activated
same,cell proliferation (BrdU uptake assay),mouse iPS cells [4],reduced the proliferation
same,"cytotoxic activity (viability, MTT assay)",mouse ES cells [5]; 10 μM BRQ,significant cytotoxic activity
same,"cytotoxic activity (viability, MTT assay)",mouse ES cells [5]; [12],significant cytotoxic activity
same,"cytotoxic activity (viability, MTT assay)",[6],no significant cytotoxic activity
same,ES cells (Nanog) in mixed culture,[7]; ES cell medium,lost
same,cytotoxicity to neural stem cells (Nestin) in mixed culture,[7]; mixed with ES cells,no obvious cytotoxicity
same,number of Oct4-positive cells and Nanog-positive cells in tumors,[8]; iPS cell-derived tumors,significantly decreased
same,tumor proliferation,"[8]; iPS cell-derived tumors, BRQ intraperitoneally",suppressed
same,"cells expressing differentiation markers (ATF, βIII tubulin, SMA) in tumors","[8]; iPS cell-derived tumors, BRQ- vs DMSO-treated",similarly contained in both tumors
same,Ki67-positive proliferating cells in tumors,"[8]; iPS cell-derived tumors, compared to DMSO-treated tumors",significantly reduced
same,sizes of teratomas,"[8]; iPS cell-derived, BRQ intraperitoneally (DMSO control 1.37 cm^3)",0.32 cm^3
same,CASP3 activation (Casp3 immunostaining),mouse ES cells [9],strongly activated
same,cell proliferation (BrdU uptake assay),mouse ES cells [9],reduced the proliferation
